ChEMBL document CHEMBL3600332, “Novel dammarane-type triterpenes isolated from hydrolyzate of total Gynostemma pentaphyllum saponins” (Bioorg Med Chem Lett, 2015)
Activity calls are given as the source filed them. No cut-off for these calls is given here.

Key:
[1] = Cytotoxicity against human MCF10A cells after 48 hrs by MTT assay; type: cell-based; conditions: MCF-10A
HCT-116 = experiment: Cytotoxicity against human HCT116 cells after 48 hrs by MTT assay; type: functional, cell-based; conditions: HCT-116, 48 h
HT-29 = experiment: Cytotoxicity against human HT-29 cells after 48 hrs by MTT assay; type: functional, cell-based; conditions: HT-29, 48 h
[2] = Cytotoxicity against human BGC823 cells after 48 hrs by MTT assay; type: functional, cell-based; conditions: BGC-823, 48 h
MCF7 [3] = experiment: Cytotoxicity against human MCF7 cells after 48 hrs by MTT assay; type: functional, cell-based; conditions: for IC50: MCF7, 48 h
MCF7 [4] = experiment: Cytotoxicity against human MCF7 cells at 1 uM by MTT assay; type: functional, cell-based; conditions: TDE = time-dependent effect
MCF7 [5] = experiment: Cell cycle arrest in human MCF7 cells assessed as accumulation at subG1 phase at 20 uM after 12 to 36 hrs using propidium-iodide staining by flow-cytometry (reference value: 0.41%); type: functional
MCF7 [6] = experiment: Cell cycle arrest in human MCF7 cells assessed as accumulation at M1 phase at 20 uM after 12 to 36 hrs using propidium-iodide staining by flow-cytometry (reference value: 0.95%); type: functional
MCF7 [7] = experiment: Induction of apoptosis in human MCF7 cells assessed as condensed chromatin in nucleus at 20 uM after 36 hrs by DAPI staining; type: functional, cell-based
MCF7 [8] = experiment: Induction of apoptosis in human MCF7 cells assessed as bubble-shaped regions at 20 uM after 36 hrs by phase-contrast microscopic analysis; type: functional, cell-based

| Structure (SMILES) | IC50 [1] | IC50 (HCT-116) | IC50 (HT-29) | IC50 [2] | IC50 (MCF7 [3]) | Activity (MCF7 [4]) | Activity (MCF7 [5]) | Activity (MCF7 [6]) | Activity (MCF7 [3]) | Activity (MCF7 [7]) | Activity (MCF7 [8]) |
| --- | --- | --- | --- | --- | --- | --- | --- | --- | --- | --- | --- |
| CC(C)(O)CCC[C@@H](CO[C@@H]1O[C@H](CO)[C@@H](O)[C@H](O)[C@H]1O)[C@H]1CC[C@]2(C)[C@@H]1CC[C@@H]1C3=C(CC[C@]12C)C(C)(C)[C@@H]1CC[C@H]3O1 | > 100 µM | > 100 µM | 32 µM | > 100 µM | 21.2 µM | – | – | – | – | – | – |
| CC(C)(O)CC/C=C(/CO[C@@H]1O[C@H](CO)[C@@H](O)[C@H](O)[C@H]1O)[C@@H]1CC[C@]2(C)[C@@H]1CC[C@@H]1[C@@]3(C)CC[C@H](O)C(C)(C)[C@@H]3CC[C@]12C | > 100 µM | 66.5 µM | 30.5 µM | > 100 µM | 46.3 µM | – | – | – | – | – | – |
| CC(C)(O)CC/C=C(/CO[C@@H]1O[C@H](CO)[C@@H](O)[C@H](O)[C@H]1O)[C@H]1CC[C@]2(C)[C@@H]1CC[C@@H]1C3=C(CC[C@]12C)C(C)(C)[C@@H]1CC[C@H]3O1 | > 100 µM | > 100 µM | 26.1 µM | > 100 µM | 14.3 µM | – | – | – | – | – | – |
| CC(C)(O)CC/C=C(/CO[C@@H]1O[C@H](CO)[C@@H](O)[C@H](O)[C@H]1O)[C@H]1CC[C@]2(C)[C@@H]1CC[C@@H]1[C@@]3(C)CC[C@H](O)C(C)(C)[C@@H]3CC[C@]12C | > 100 µM | 67.3 µM | 33.6 µM | > 100 µM | 52.4 µM | – | – | – | – | – | – |
| COC(C)(C)CCC[C@@](O)(CO[C@@H]1O[C@H](CO)[C@@H](O)[C@H](O)[C@H]1O)[C@H]1CC[C@]2(C)[C@@H]1CC[C@@H]1C3=C(CC[C@]12C)C(C)(C)[C@@H]1CC[C@H]3O1 | > 100 µM | 55.7 µM | 28.1 µM | > 100 µM | 6.85 µM | tde | 17.09% | 74.59% | Dose-dependent effect | Active | Active |
